For one molecule, solubility results are on record in patent US8088932B2, “Pentaaryldiamine-containing bismaleimide compound and method of producing the compound” (Industrial Technology Research Institute, priority 2008, dated 2012).

A short description of this data set: physchem. Conditions: organic solvent or mixture, thermodynamic from solid.

SMILES strings stand for the structures.

In general, solubility refers to the concentration that dissolves in the medium under given conditions. As for `N#Cc1ccc(N(c2ccc(C#N)cc2)c2ccc(N(c3ccc(N4C(=O)C=CC4=O)cc3)c3ccc(N4C(=O)C=CC4=O)cc3)cc2)cc1` [Compound 6, N,N-bis(4-maleimidophenyl)-N′,N′-bis(4-cyanophenyl)-1,4-phenylenediamine], the solubility reads like this: (Solubility in CHCl3) over 1000 µg/mL; (Solubility in DMAc) over 1000 µg/mL; (Solubility in DMF) over 1000 µg/mL; (Solubility in DMSO) over 1000 µg/mL; (Solubility in MeOH) under 1000 µg/mL; (Solubility in NMP) over 1000 µg/mL. In addition, the solubility is over 1000 µg/mL (Solubility in THF) and over 1000 µg/mL (Solubility in m-Cresol).
